Here are results for one molecule from BindingDB's records for doi:10.1021/jm0305523 (Merck Research Laboratories, 2004).

This test addresses T1, Caspase-3 (Homo sapiens, UniProt P42574).
T1 sequence (P42574 whole entry): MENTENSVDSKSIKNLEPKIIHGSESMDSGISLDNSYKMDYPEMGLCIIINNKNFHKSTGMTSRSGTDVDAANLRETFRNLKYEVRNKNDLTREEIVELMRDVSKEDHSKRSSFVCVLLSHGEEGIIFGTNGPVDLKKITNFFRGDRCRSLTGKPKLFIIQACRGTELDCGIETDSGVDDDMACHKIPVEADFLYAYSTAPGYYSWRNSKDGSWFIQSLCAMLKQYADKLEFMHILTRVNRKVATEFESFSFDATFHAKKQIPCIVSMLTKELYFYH
The test is described as follows: Caspase Inhibition Assay. The conditions noted are these: pH 7; 37 °C.

For the molecule `CC(=O)N[C@@H](CC(=O)O)C(=O)N[C@H]1CCc2cccc3c2N(C1=O)[C@H](C(=O)N[C@@H](CC(=O)O)C(=O)CSCc1ccccc1)C3` [(3S)-5-(benzylsulfanyl)-3-{[(2S,11S)-11-[(3S)-3-acetamido-3-formamidopropanoic acid]-12-oxo-1-azatricyclo[6.4.1.0^{4,13}]trideca-4(13),5,7-trien-2-yl]formamido}-4-oxopentanoic acid], the IC50 (commonly the concentration at which inhibition is half-maximal) is 3 nM.
